Test [1] concerns apomorphineinduced gnawing behaviour. Put plainly: inhibition of apomorphine-induced gnawing behaviour in the rat (oral). The class given is in vivo. The text has this: | ^(b) Approximate oral ED50 value for inhibition of | apomorphineinduced gnawing behaviour in the rat (mg kg^-1) and | ^(b) Approximate oral ED50 value for inhibition of | apomorphineinduced gnawing behaviour in the rat (mg kg^-1) and […]

The subject of test [2] is apomorphineinduced vomiting. Put plainly: inhibition of apomorphine-induced vomiting in the dog (oral). It is filed as in vivo. Conditions: Canis lupus familiaris. The text has this:
| ^(b) Approximate oral ED50 value for inhibition of | apomorphineinduced gnawing behaviour in the rat (mg kg^-1) and | vomiting in the dog (μg kg^-1) | ^(b) Approximate oral ED50 value for inhibition of | apomorphineinduced gnawing behaviour in the rat (mg kg^-1) and | vomiting in the dog (μg kg^-1)

Test [3] addresses T1, dopamine sensitive adenylate cyclase of rat straitum (Rattus norvegicus, UniProt P18901).
T1 construct: adenylate cyclase of rat straitum; from tissue; host or cells: rat striatum
Nature of the test: inhibition of dopamine sensitive adenylate cyclase of rat striatum. It is filed as biochemical.

The target of test [4] is T2, [3H]haloperidol binding, rat limbic forebrain membranes (Rattus norvegicus, UniProt P61169).
T2 construct: striatal and limbic forebrain membranes; from tissue; host or cells: rat limbic forebrain membranes
T2 sequence (P61169 whole entry): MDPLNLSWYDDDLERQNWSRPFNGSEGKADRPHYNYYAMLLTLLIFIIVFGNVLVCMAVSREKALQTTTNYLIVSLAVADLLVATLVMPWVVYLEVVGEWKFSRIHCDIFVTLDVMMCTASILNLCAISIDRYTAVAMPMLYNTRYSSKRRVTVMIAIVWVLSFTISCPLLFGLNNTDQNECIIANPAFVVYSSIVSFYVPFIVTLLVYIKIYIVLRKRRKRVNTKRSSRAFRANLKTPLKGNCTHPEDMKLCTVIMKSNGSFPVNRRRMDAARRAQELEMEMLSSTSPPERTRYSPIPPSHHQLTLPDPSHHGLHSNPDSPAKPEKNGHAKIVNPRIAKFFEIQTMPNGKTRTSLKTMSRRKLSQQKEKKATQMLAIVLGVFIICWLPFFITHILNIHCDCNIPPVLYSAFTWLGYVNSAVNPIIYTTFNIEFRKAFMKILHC
Nature of the test: displacement of [3H]haloperidol from rat limbic forebrain membranes. Conditions: Table 1, read-out: Displacement [3H]Haloperidol limbic: approximate KI. An excerpt: (§1) ^(f) Approximate KI (nM) for displacement of [3Hhaloperidol from rat
(§2) striatal and limbic forebrain membranes.
For orientation: Loss of bound radioactivity is the signal in a displacement assay; it reports binding, not function.

In test [5] the target is T3, [3H]haloperidol binding, rat striatal membranes (Rattus norvegicus, UniProt P61169).
T3 construct: striatal and limbic forebrain membranes; from tissue; host or cells: rat striatal membranes
T3 sequence (P61169 whole entry): as above
Put plainly: displacement of [3H]haloperidol from rat striatal membranes. Conditions: Table 1, read-out: Displacement [3H]Haloperidol striatum: approximate KI.
Text: as §1, §2

Setting [6] is: approximate ED50, Table 2, read-out: Antiapomorphine rat: approximate oral ED50 for inhibition of apomorphine-induced gnawing.
The mark [7] stands for this setting: approximate ED50, Table 2, read-out: Antiapomorphine dog: approximate oral ED50 for inhibition of apomorphine-induced vomiting.
The mark [8] stands for this setting: approximate ED50, Table 1, read-out: Anti-apomorphine rat: approximate oral ED50 for inhibition of apomorphine-induced gnawing.
[9] abbreviates: approximate ED50, Table 1, read-out: Anti-apomorphine dog: approximate oral ED50 for inhibition of apomorphine-induced vomiting.
Setting [10] is: rat striatum, Table 1, read-out: Dopamine sensitive aden-cyclase: approximate KI.

pKi: −log10 of the molar value. Where a name gives a salt, the structure may show the parent alone. Read-outs that look alike come from different tables or passages of the source. A value given as a limit tells only on which side of the number the result lay.

The values below come from patent US5026858A, “Piperidine derivative” (Walton S.A., priority 1976, dated 1991).

The ED50 is the midpoint of the dose-response relation. As usually defined, the pKi is the Ki on a negative log10 scale, so that one unit is a factor of ten.

T1 sequence (P18901 whole entry): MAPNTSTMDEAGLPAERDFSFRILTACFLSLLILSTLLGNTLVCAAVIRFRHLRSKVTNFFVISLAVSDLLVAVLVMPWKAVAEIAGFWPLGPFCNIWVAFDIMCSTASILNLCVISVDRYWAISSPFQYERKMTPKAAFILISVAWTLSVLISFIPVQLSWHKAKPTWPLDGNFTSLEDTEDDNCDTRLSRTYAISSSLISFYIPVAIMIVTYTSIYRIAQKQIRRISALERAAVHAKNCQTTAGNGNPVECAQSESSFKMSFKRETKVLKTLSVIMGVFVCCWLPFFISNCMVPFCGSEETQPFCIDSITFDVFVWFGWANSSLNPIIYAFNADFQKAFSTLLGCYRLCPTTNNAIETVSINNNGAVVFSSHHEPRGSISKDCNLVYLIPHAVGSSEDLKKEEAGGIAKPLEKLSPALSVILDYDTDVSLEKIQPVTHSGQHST

Take `COc1cc(N)c([N+](=O)[O-])cc1C(=O)NC1CCN(CC2=CCC(C)=CC2)CC1` [compound 6, N-[1-(4-methylcyclohexa-1,4-dienyl)methylpiperid-4-yl]-2-methoxy-4-amino-5-nitrobenzamide]: the 50% effective dose (ED50) is 35 mg/kg in test [1] (setting [6]) and below 0.05 mg/kg in test [2] (setting [7]).
The corresponding values for `CCOc1cc(N)c([N+](=O)[O-])cc1C(=O)NC1CCN(CC2=CCC=CC2)CC1` [compound 4, N-(1-cyclohexa-1',4'-dienylmethylpiperid-4-yl)-2-ethoxy-4-amino-5-nitrobenzamide] are 50 mg/kg and below 0.05 mg/kg.
In the case of `CCN1CCCC1CNC(=O)c1cc(S(N)(=O)=O)ccc1OC` (stereo not drawn) [Sulpiride, reference compound], the ED50 was above 800 mg/kg in test [1] (setting [8]) and 0.141 mg/kg in test [2] (setting [9]).
In the case of `COc1cc(N)c([N+](=O)[O-])cc1C(=O)NC1CCN(Cc2ccccc2)CC1` [MeO, NH2, NO2, H, phenyl, H, H, H, --, N-(1-Benzylpiperid-4-yl)-2-methoxy-4-amino-5-nitrobenzamide], the median effective dose (ED50) in test [1] (setting [8]) is 140 mg/kg; in test [2] (setting [9]), below 0.05 mg/kg. The pKi in test [3] (setting [10]) is 8.30; in test [4], 9.00; in test [5], 7.70.
In the case of `COc1cc(N)c(Cl)cc1C(=O)NC1CCN(Cc2ccccc2)CC1` [Clebopride hydrochloride, reference compound], the ED50 in test [1] (setting [6]) was 2.5 mg/kg; in test [2] (setting [7]), 0.04 mg/kg. For the same compound, the negative logarithm of the Ki (pKi) in test [3] (setting [10]) is 8.30; in test [4], 8.30; in test [5], 7.60.
`COc1cc(N)c([N+](=O)[O-])cc1C(=O)NC1CCN(CCC2=CCC=CC2)CC1` [compound 3, N-[1-(2-cyclohexa-1',4'-dienylethyl)piperid-4-yl]-2-methoxy-4-amino-5-nitrobenzamide]: the median effective dose (ED50) in test [1] (setting [6]) is above 300 mg/kg; in test [2] (setting [7]), above 0.5 mg/kg.
`CCN(CC)CCNC(=O)c1cc(Cl)c(N)cc1OC` [Metoclopramide, reference compound]: the median effective dose (ED50) in test [1] (setting [8]) amounted to 13.6 mg/kg; in test [2] (setting [9]), 0.45 mg/kg. The negative-log Ki (pKi) in test [3] is 7.22.
As for `COc1cc(N)c([N+](=O)[O-])cc1C(=O)NC1CCN(Cc2ccc(Cl)cc2)CC1` [N-(1-p-chlorobenzylpiperid-4-yl)-2-methoxy-4-amino-5-nitrobenzamide], in test [2] (setting [9]), the ED50 is below 0.05 mg/kg.
In the case of `CCOc1cc(N)c([N+](=O)[O-])cc1C(=O)NC1CCN(CC2=CCC(C)=CC2)CC1` [compound 5, N-[1-(4-methylcyclohexa-1,4-dienyl)methylpiperid-4-yl]-2-ethoxy-4-amino-5-nitrobenzamide], the results for the 50% effective dose (ED50) in test [1] (setting [6]) and in test [2] (setting [7]) were 40 mg/kg and below 0.05 mg/kg, respectively.
In the case of `CCOc1cc(N)c([N+](=O)[O-])cc1C(=O)NC1CCN(Cc2ccccc2)CC1` [EtO, NH2, NO2, H, phenyl, H, H, H, --, N-(1-benzylpiperid-4-yl)-2-ethoxy-4-amino-5-nitrobenzamide], the 50% effective dose (ED50) in test [2] (setting [9]) was below 0.05 mg/kg.
Take `COc1cc(N)c([N+](=O)[O-])cc1C(=O)NC1CCN(CCc2ccccc2)CC1` [MeO, NH2, NO2, H, phenyl, H, H, H, CH2, N-(1-phenethylpiperid-4-yl)-2-methoxy-4-amino-5-nitrobenzamide]: the values for the ED50 in test [1] (setting [8]) and in test [2] (setting [9]) were 800 mg/kg and above 5 mg/kg, respectively. For the same compound, the figures for the negative logarithm of the Ki (pKi) in test [3] (setting [10]), in test [4] and in test [5] were 9.00, 9.00 and 8.00, respectively.
On to `COc1cc(N)c([N+](=O)[O-])cc1C(=O)NC1CCN(Cc2ccc(C)cc2)CC1` [N-(1-p-methylbenzylpiperid-4-yl)-2-methoxy-4-amino-5-nitrobenzamide], for which the 50% effective dose (ED50) in test [2] (setting [9]) was below 0.05 mg/kg.
With `COc1cc(N)c([N+](=O)[O-])cc1C(=O)NC1CCN(CC2=CCC=CC2)CC1` [compound 2, N-(1-Cyclohexa-1',4'-dienylmethylpiperid-4-yl)-2-methoxy-4-amino-5-nitrobenzamide], the ED50 was 60 mg/kg in test [1] (setting [6]) and below 0.05 mg/kg in test [2] (setting [7]).
